Entries after “also recorded” stand apart in the source; their conditions may differ. Like-named read-outs stand apart in the source and are kept apart here.
Assays:
[1] = tested on: drug-resistant epileptic seizures; assay: Add-on glucocorticosteroid or ACTH treatment in pediatric drug resistant epilepsy (review of clinical data); type: in vivo, human; settings: for occurrence of seizures (seizure burden vs baseline): add-on treatment, pediatric drug resistant epilepsy, 53 treatments
Description: The study was conducted according to the Declaration of Helsinki Criteria and to the procedures for compassionate drug administration approved by the Ethic Committees of Carlo Besta Institute (Milan, Italy). Oral informed consent from was obtained from parents by specialized neurologists. Administration of GCs was considered compassion care since all patients had intractable life threatening seizures. The clinical data of 43 patients (Table 4) of the Carlo Besta Neurological Institute (Milan, Italy) was reviewed. […] Patients with a history of epileptic syndromes known to respond to steroids (i.e., West, Lennox-Gastaut, Landau-Kleffner and Rasmussen encephalitis) as well as patients affected by documented inflammatory brain disease were excluded. All the subjects received steroid treatment on an in-patient basis.
Patients received GCs or ACTH therapy because of one of the following: 1) >50% increase in seizure frequency; 2) development of non-convulsive status epilepticus; 3) presence of epilepsia partialis continua (EPC). Before GCs or ATCH treatment, patients were evaluated by a team of neurologists, physiologists, and underwent EEG and routine laboratory examinations. Antiepileptic treatments were maintained during the steroid course (Table 4).
Steroidal treatment was, when successful, repeated in case of seizure recurrence. […] GCs or ATCH therapy was considered successful when: 1) seizure frequency decreased by 50%; 2) status epilepticus was stopped; 3) or when epilepsia partialis continua (EPC) was stopped/reduced enough to allow voluntary movement in the affected body district. Duration of treatment was limited to acute dosing, which was repeated when the initial response was beneficial. The effects of length of treatments and efficacy/toxicity of chronic use are not presented herein, since this study design only addressed a proof of principle use of steroids in pediatric epilepsy.

blood-brain barrier = settings: IL-RA pre-treatment; previously reported; cited from earlier work
pilocarpine-induced SE [2] = settings: data from Marchi 2009, cited from earlier work
IL-1β = assay: Serum IL-1β ELISA in rats; type: in vivo, rat; settings: dexamethasone treatment
Description: (§1) The schedule of blood sampling is illustrated in FIG. 14A. Blood was collected from the tail vein using a fixed catheter (Venisystem, Abbocath, 22 G, 300-500 μl/sample). For FACS analysis, 150 μL of whole blood were incubated with a combination of specific antibodies recognizing T-cell subpopulation (CD3+). In particular mouse anti-rat CD8a-FITC, CD3-R-PE and CD4-PE-Cy5 (BD-Pharmingen) were added (2 μL, 5 μL and 5 μL respectively) to blood samples. Blood samples were analyzed by the FACS-Core facility at the Cleveland Clinic. IL-1β ELISA-tests was purchased from Pierce Biotechnology Inc. and performed as described by the vendor.

pilocarpine-induced SE [3] = assay: Pilocarpine-induced status epilepticus in rats (EEG, Racine's scale, mortality); type: in vivo, rat; settings: for time to onset of SE: rats that developed SE
Description: Rats (male Sprague-Dawley 225-250 g) were injected with methylscopolamine (0.5 mg/kg, i.p., Sigma-Aldrich) and 30 minutes after with pilocarpine (340 mg/Kg, Sigma-Aldrich). Data obtained from a total of 45 rats was analyzed (see also FIG. 14B). Development of seizure and status epilepticus was evaluated by behavioral (Racine's scale) and EEG assessment. […] IL-RA data included here are relative to [Marchi N., et al. (2009) Neurobiol Dis 33: 171-181]. IL-RA was administrated in the tail vein (30 μg/kg) 2 hours before scopolamine/pilocarpine treatment.
Note that blood samples were taken at baseline, after each treatment and immediately before (or at onset) of status epilepticus (SE), as evaluated by EEG and behavioral (Racine's Scale) assessments. This methodology has been used in the past to evaluate the presence of BBB damage and inflammatory process preceding seizure onset [Uva L., et al. (2008) Neuroscience 151: 303-312].
Stereotactic electrode implantation was performed in rats under isofluorane anaesthesia, using the Kopf stereotactic frame. Approximately, half of the rats used were implanted. Four stainless steel screws (MX-0090-2, Small Parts Inc., Miami, Fla.) were placed bilaterally on the dura mater of the fronto-parietal cortex. A prefabricated Pinnacle pre-amplifier was connected to the screws. The system has three bio-potential channels—2 EEG and 1 EMG. Prefabricated head implants (Pinnacle Inc., USA) ensured accurate electrode positioning and reliable, robust contacts. Cable artifacts are eliminated by pre-amplification of the EEG and EMG waveforms at the animal's head. EEG data were sampled a rate of 200 Hz. All data are transferred via a USB connection to a PC. Rats were left unrestrained for 2 weeks to recovery from surgery before EEG recordings were performed. Each rat was kept in a separate cage under 12-hours dark-light cycles with free access to food and water. Origin Microcal 7.0 and Diadem (National Instruments) was used in conjunction to the acquisition system for data analysis (e.g., time joint frequency analysis).

seizures = settings: drug-resistant children, Araki 2006; cited from earlier work
CD3+ T-lymphocytes = assay: FACS analysis of circulating T-lymphocytes in rat blood; type: in vivo; settings: after dexamethasone treatment, rats
Description: as §1

[4] = dexamethasone pre-treatment, vs pilocarpine alone

Question: With “adrenocorticotropic hormone (SYSMEHFRWGKPVGKKRRPVKVYPNGAEDESAEAFPLEF; Corticotropin; UniProt P01189 138-176, looked up) [ACTH]” as the molecule, how does the “occurrence of seizures (seizure burden vs baseline)” value [1] read?
Answer: significantly reduced

Question: For “IL-RA: IL-1 receptor antagonist, data from Marchi 2009”, which “pilocarpine-induced BBB damage” value (blood-brain barrier) is on record?
Answer: prevents BBB damage

Question: And the “early EEG burst clusters (time-joint frequency analysis)” value (pilocarpine-induced SE [2]; IL1-RA pre-treatment)?
Answer: reduced in amplitude and frequency

Question: And the “number of rats developing SE / seizure occurrence” value (pilocarpine-induced SE [2]; IL-RA 30 μg/kg tail vein 2 hours before scopolamine/pilocarpine)?
Answer: reduces seizure occurrence

Question: What about the “mortality associated with pilocarpine seizures (twelve hours)” value (pilocarpine-induced SE [2]; IL-RA pre-treatment) of the same molecule?
Answer: decreased

Question: And the “time to onset of SE” value (pilocarpine-induced SE [2]; IL-RA pre-treatment)?
Answer: delayed

Question: For `C[C@]12CCC(=O)C=C1CC[C@@H]1[C@@H]2[C@@H](O)C[C@@]2(C)[C@H]1CC[C@]2(O)C(=O)CO` [hydrocortisone], which “blood-brain barrier function and seizure frequency in epileptic patients receiving anti-inflammatory therapy” value ([1]; epileptic patients, clinical dosage) is on record?
Answer: comparable effects

Question: With `C[C@@H]1C[C@H]2[C@@H]3CCC4=CC(=O)C=C[C@]4(C)[C@@]3(F)[C@@H](O)C[C@]2(C)[C@@]1(O)C(=O)CO` [dexamethasone] as the molecule, how does the “serum IL1-β levels” value (IL-1β) read?
Answer: reduced

Question: And the “serum IL1-β levels” value (IL-1β; listed as Dexamethasone)?
Answer: significantly reduced

Question: And the “time to onset of SE” value (pilocarpine-induced SE [3]; [4])?
Answer: significantly delayed

Question: What about the “time to onset of SE” value (pilocarpine-induced SE [3]; dexamethasone pre-treatment, vs pilocarpine alone, listed as Dexa) of the same molecule?
Answer: delayed

Question: And the “mortality associated with pilocarpine SE (twelve hours)” value (pilocarpine-induced SE [3]; dexamethasone pre-treatment, seizures not stopped with barbiturates)?
Answer: significantly decreased; also recorded: abolishes mortality; also recorded: reduced mortality; also recorded: abolished

Question: And the “early EEG burst clusters (time-joint frequency analysis)” value (pilocarpine-induced SE [3]; [4])?
Answer: reduced in amplitude and frequency

Question: And the “effects of single dosage of 1 mg/day on pilocarpine seizures” value (pilocarpine-induced SE [3]; single dosage of 1 mg/day)?
Answer: did not exert any discernable effects

Question: What about the “occurrence of seizures (seizure burden vs baseline)” value [1] of the same molecule?
Answer: significantly reduced

Question: And the “MRI FLAIR hyperintensity” value ([1]; patient after dexamethasone treatment, concurrent with seizure reduction)?
Answer: decrease in FLAIR hyperintensity

Question: What about the “seizure frequency vs untreated patients” value (seizures) of the same molecule?
Answer: reduced seizure frequency

Question: And the “number of circulating CD3+ T-lymphocytes” value (CD3+ T-lymphocytes)?
Answer: drastic reduction; also recorded: drastic decrease

Question: What about the “relative percentage of CD8+ subpopulation among CD3+ cells” value (CD3+ T-lymphocytes) of the same molecule?
Answer: significantly affected
